Experimental data published in ChEMBL document CHEMBL4196087 (Eur J Med Chem, 2018).
Converted amounts (≈) assume the structure as drawn.

Columns and labels:
Type in all cases: functional
Staphylococcus aureus = experiment: Antibacterial activity against Staphylococcus aureus at 37 degC measured after 24 hrs by agar disc diffusion method
Bacillus subtilis [1] = experiment: Antibacterial activity against Bacillus subtilis at 37 degC measured after 24 hrs by agar disc diffusion method
Bacillus subtilis [2] = experiment: Antibacterial activity against Bacillus subtilis at 37 degC measured after 24 hrs by CLSI M7-A4 protocol based method
Escherichia coli = experiment: Antibacterial activity against Escherichia coli at 37 degC measured after 24 hrs by agar disc diffusion method
Pseudomonas aeruginosa [3] = experiment: Antibacterial activity against Pseudomonas aeruginosa at 37 degC measured after 24 hrs by CLSI M7-A4 protocol based method
Pseudomonas aeruginosa [4] = experiment: Antibacterial activity against Pseudomonas aeruginosa at 37 degC measured after 24 hrs by agar disc diffusion method
T47D = experiment: Growth inhibition of human T47D cells at 10^-5 M incubated for 48 hrs by sulforhodamine B assay relative to control; conditions: read-out: GI
SF-539 = experiment: Growth inhibition of human SF539 cells at 10^-5 M incubated for 48 hrs by sulforhodamine B assay relative to control; conditions: SF-539, 48 h, read-out: GI
SK-MEL-5 = experiment: Growth inhibition of human SK-MEL-5 cells at 10^-5 M incubated for 48 hrs by sulforhodamine B assay relative to control; conditions: SK-MEL-5, 48 h, read-out: GI
IGROV-1 = experiment: Growth inhibition of human IGROV1 cells at 10^-5 M incubated for 48 hrs by sulforhodamine B assay relative to control; conditions: IGROV-1, 48 h, read-out: GI
HOP-62 = experiment: Growth inhibition of human HOP62 cells at 10^-5 M incubated for 48 hrs by sulforhodamine B assay relative to control; conditions: HOP-62, 48 h, read-out: GI
UO-31 = experiment: Growth inhibition of human UO31 cells at 10^-5 M incubated for 48 hrs by sulforhodamine B assay relative to control; conditions: UO-31, 48 h, read-out: GI
SNB-75 = experiment: Growth inhibition of human SNB75 cells at 10^-5 M incubated for 48 hrs by sulforhodamine B assay relative to control; conditions: SNB-75, 48 h, read-out: GI
CCRF-CEM = experiment: Growth inhibition of human CCRF-CEM cells at 10^-5 M incubated for 48 hrs by sulforhodamine B assay relative to control; conditions: read-out: GI
HOP-92 = experiment: Growth inhibition of human HOP92 cells at 10^-5 M incubated for 48 hrs by sulforhodamine B assay relative to control; conditions: HOP-92, 48 h, read-out: GI
NCI-H226 = experiment: Growth inhibition of human NCI-H226 cells at 10^-5 M incubated for 48 hrs by sulforhodamine B assay relative to control; conditions: NCI-H226, 48 h, read-out: GI
PC-3 = experiment: Growth inhibition of human PC3 cells at 10^-5 M incubated for 48 hrs by sulforhodamine B assay relative to control; conditions: PC-3, 48 h, read-out: GI
MDA-MB-231 = experiment: Growth inhibition of human MDA-MB-231 cells at 10^-5 M incubated for 48 hrs by sulforhodamine B assay relative to control; conditions: MDA-MB-231, 48 h, read-out: GI
MCF7 = experiment: Growth inhibition of human MCF7 cells at 10^-5 M incubated for 48 hrs by sulforhodamine B assay relative to control; conditions: MCF7, 48 h, read-out: GI
K562 = experiment: Growth inhibition of human K562 cells at 10^-5 M incubated for 48 hrs by sulforhodamine B assay relative to control; conditions: K562, 48 h, read-out: GI
MOLT-4 = experiment: Growth inhibition of human MOLT4 cells at 10^-5 M incubated for 48 hrs by sulforhodamine B assay relative to control; conditions: MOLT-4, 48 h, read-out: GI
HL-60(TB) = experiment: Growth inhibition of human HL-60(TB) cells at 10^-5 M incubated for 48 hrs by sulforhodamine B assay relative to control; conditions: HL-60, 48 h, read-out: GI
A498 = experiment: Growth inhibition of human A498 cells at 10^-5 M incubated for 48 hrs by sulforhodamine B assay relative to control; conditions: A498, 48 h, read-out: GI
LOX IMVI = experiment: Growth inhibition of human LOXIMVI cells at 10^-5 M incubated for 48 hrs by sulforhodamine B assay relative to control; conditions: read-out: GI
RPMI-8226 = experiment: Growth inhibition of human RPMI8226 cells at 10^-5 M incubated for 48 hrs by sulforhodamine B assay relative to control; conditions: RPMI-8226, 48 h, read-out: GI
MDA-MB-468 = experiment: Growth inhibition of human MDA-MB-468 cells at 10^-5 M incubated for 48 hrs by sulforhodamine B assay relative to control; conditions: MDA-MB-468, 48 h, read-out: GI
SK-OV-3 = experiment: Growth inhibition of human SKOV3 cells at 10^-5 M incubated for 48 hrs by sulforhodamine B assay relative to control; conditions: SK-OV-3, 48 h, read-out: GI

Row | Compound | diameter of the inhibition zone (DIZ) (Staphylococcus aureus) [mm] | diameter of the inhibition zone (DIZ) (Bacillus subtilis [1]) [mm] | MIC (Bacillus subtilis [2]) [µg/mL] | diameter of the inhibition zone (DIZ) (Escherichia coli) [mm] | MIC (Pseudomonas aeruginosa [3]) [µg/mL] | diameter of the inhibition zone (DIZ) (Pseudomonas aeruginosa [4]) [mm] | inhibition of growth at 10 µM (T47D) [%] | inhibition of growth at 10 µM (HOP-62) [%] | inhibition of growth at 10 µM (UO-31) [%] | inhibition of growth at 10 µM (HOP-92) [%] | inhibition of growth at 10 µM (PC-3) [%] | inhibition of growth at 10 µM (MOLT-4) [%] | inhibition of growth at 10 µM (LOX IMVI) [%] | also measured
1 | O=C(CN1CCN(c2cc3c(cc2F)c(=O)c(C(=O)O)cn3C2CC2)CC1)N/N=C/c1ccco1 | 26 | 31 | 70 (≈ 145 µM) | 28 | 66 (≈ 137 µM) | 30 |  |  |  |  |  |  |  | 
2 | O=C(CN1CCN(c2cc3c(cc2F)c(=O)c(C(=O)O)cn3C2CC2)CC1)N/N=C/c1ccc(F)cc1 | 18 | 19 |  | 17 |  | 19 |  |  |  |  |  |  |  | 
3 | COc1ccc(/C=N/NC(=O)CN2CCN(c3cc4c(cc3F)c(=O)c(C(=O)O)cn4C3CC3)CC2)cc1 | 25 | 26 |  | 24 |  | 27 | < 20 | < 20 | < 20 | < 20 | < 20 | < 20 | 23.2 | inhibition of growth at 10 µM (SF-539): < 20%; inhibition of growth at 10 µM (SK-MEL-5): < 20%; inhibition of growth at 10 µM (IGROV-1): < 20%; inhibition of growth at 10 µM (SNB-75): < 20%; inhibition of growth at 10 µM (CCRF-CEM): < 20%; inhibition of growth at 10 µM (NCI-H226): < 20%; inhibition of growth at 10 µM (MDA-MB-231): < 20%; inhibition of growth at 10 µM (MCF7): < 20%; inhibition of growth at 10 µM (K562): < 20%; inhibition of growth at 10 µM (HL-60(TB)): < 20%; inhibition of growth at 10 µM (A498): < 20%; inhibition of growth at 10 µM (RPMI-8226): < 20%; inhibition of growth at 10 µM (MDA-MB-468): < 20%
4 | COc1cc(/C=N/NC(=O)CN2CCN(c3cc4c(cc3F)c(=O)c(C(=O)O)cn4C3CC3)CC2)ccc1O | 16 | 20 |  | 18 |  | 18 |  |  |  |  |  |  |  | 
5 | O=C(O)c1cn(C2CC2)c2cc(N3CCNCC3)c(F)cc2c1=O [CIPROFLOXACIN] | 31 | 38 |  | 33 |  | 36 |  |  |  |  |  |  |  | 
6 | O=C(CN1CCN(c2cc3c(cc2F)c(=O)c(C(=O)O)cn3C2CC2)CC1)N/N=C/c1cccs1 | 23 | 28 | 82 (≈ 165 µM) | 24 | 72 (≈ 145 µM) | 26 | < 20 | < 20 | < 20 | < 20 | < 20 | < 20 | 27.7 | inhibition of growth at 10 µM (SF-539): < 20%; inhibition of growth at 10 µM (SK-MEL-5): < 20%; inhibition of growth at 10 µM (IGROV-1): < 20%; inhibition of growth at 10 µM (SNB-75): < 20%; inhibition of growth at 10 µM (CCRF-CEM): < 20%; inhibition of growth at 10 µM (NCI-H226): < 20%; inhibition of growth at 10 µM (MDA-MB-231): < 20%; inhibition of growth at 10 µM (MCF7): < 20%; inhibition of growth at 10 µM (K562): < 20%; inhibition of growth at 10 µM (HL-60(TB)): < 20%; inhibition of growth at 10 µM (A498): 23.1%; inhibition of growth at 10 µM (RPMI-8226): < 20%; inhibition of growth at 10 µM (MDA-MB-468): < 20%
7 | O=C(CN1CCN(c2cc3c(cc2F)c(=O)c(C(=O)O)cn3C2CC2)CC1)N/N=C/c1ccccc1Cl | 20 | 22 |  | 19 |  | 22 |  |  |  |  |  |  |  | 
8 | O=C(CN1CCN(c2cc3c(cc2F)c(=O)c(C(=O)O)cn3C2CC2)CC1)N/N=C/c1ccc(Cl)cc1 | 28 | 30 | 62 (≈ 118 µM) | 28 | 60 (≈ 114 µM) | 30 | < 20 | < 20 | < 20 | < 20 | < 20 | < 20 | < 20 | inhibition of growth at 10 µM (SF-539): < 20%; inhibition of growth at 10 µM (SK-MEL-5): < 20%; inhibition of growth at 10 µM (IGROV-1): < 20%; inhibition of growth at 10 µM (SNB-75): < 20%; inhibition of growth at 10 µM (CCRF-CEM): < 20%; inhibition of growth at 10 µM (NCI-H226): < 20%; inhibition of growth at 10 µM (MDA-MB-231): < 20%; inhibition of growth at 10 µM (MCF7): < 20%; inhibition of growth at 10 µM (K562): < 20%; inhibition of growth at 10 µM (HL-60(TB)): < 20%; inhibition of growth at 10 µM (A498): 26.7%; inhibition of growth at 10 µM (RPMI-8226): < 20%; inhibition of growth at 10 µM (MDA-MB-468): < 20%
9 | O=C(CN1CCN(c2cc3c(cc2F)c(=O)c(C(=O)O)cn3C2CC2)CC1)N/N=C/c1ccncc1 | 30 | 35 | 62 (≈ 126 µM) | 28 | 44 (≈ 89.3 µM) | 30 |  |  |  |  |  |  |  | 
10 | CSc1nnc(CN2CCN(c3cc4c(cc3F)c(=O)c(C(=O)O)cn4C3CC3)CC2)o1 |  |  |  |  |  |  | 21.1 | < 20 | < 20 | < 20 | 24.9 | < 20 | < 20 | inhibition of growth at 10 µM (SK-OV-3): < 20%
11 | O=C(CSc1nnc(CN2CCN(c3cc4c(cc3F)c(=O)c(C(=O)O)cn4C3CC3)CC2)o1)c1ccccc1 |  |  |  |  |  |  | < 20 | < 20 | 20.3 | < 20 | 23.9 | < 20 | 25.3 | inhibition of growth at 10 µM (SK-OV-3): < 20%
12 | O=C(CN1CCN(c2cc3c(cc2F)c(=O)c(C(=O)O)cn3C2CC2)CC1)N/N=C/c1ccccc1F | 26 | 29 |  | 26 |  | 29 |  |  |  |  |  |  |  | 
13 | O=C(CN1CCN(c2cc3c(cc2F)c(=O)c(C(=O)O)cn3C2CC2)CC1)N/N=C/c1cccnc1 | 30 | 32 | 60 (≈ 122 µM) | 29 | 58 (≈ 118 µM) | 31 |  |  |  |  |  |  |  | 
14 | NNC(=O)CN1CCN(c2cc3c(cc2F)c(=O)c(C(=O)O)cn3C2CC2)CC1 | 28 | 33 |  | 28 |  | 30 | < 20 | < 20 | < 20 | < 20 | < 20 | < 20 | < 20 | inhibition of growth at 10 µM (SF-539): < 20%; inhibition of growth at 10 µM (SK-MEL-5): < 20%; inhibition of growth at 10 µM (IGROV-1): < 20%; inhibition of growth at 10 µM (SNB-75): < 20%; inhibition of growth at 10 µM (CCRF-CEM): < 20%; inhibition of growth at 10 µM (NCI-H226): < 20%; inhibition of growth at 10 µM (MDA-MB-231): < 20%; inhibition of growth at 10 µM (MCF7): < 20%; inhibition of growth at 10 µM (K562): < 20%; inhibition of growth at 10 µM (HL-60(TB)): 20.5%; inhibition of growth at 10 µM (A498): < 20%; inhibition of growth at 10 µM (RPMI-8226): < 20%; inhibition of growth at 10 µM (MDA-MB-468): < 20%
15 | COc1cc(/C=N/NC(=O)CN2CCN(c3cc4c(cc3F)c(=O)c(C(=O)O)cn4C3CC3)CC2)cc(OC)c1OC | 21 | 23 |  | 20 |  | 23 |  |  |  |  |  |  |  | 
